# Source: US7807701B2, “Dibenzylamine compounds and pharmaceutical use thereof” (Japan Tobacco Inc., priority 2002, dated 2010)
# Assays:
# HDL cholesterol = assay: Blood HDL cholesterol increasing effect in normal hamster; assay type: in vivo; settings: single oral dose 3 mg/kg, versus solvent group, average values; for HDL cholesterol increase content (%) 4 (hr later): 4 hr after administration; for HDL cholesterol increase content (%) 8 (hr later): 8 hr after administration
# Experimental: (§1) The compound of the present invention was suspended in 0.5% methyl cellulose solution and orally administered once to a healthy hamster with a plastic gavage needle. Blood was taken at 2 or 4 hr after the administration and CETP activity in plasma was measured according to the following method.
# To the plasma (40 μL) obtained from the above-mentioned animal at 4 or 8 hr after the administration was added 15% polyethylene glycol solution (40 μL) and the mixture was thoroughly stirred. After keeping at room temperature for 10 min, the mixture was centrifuged (10,000×g, 4° C., 20 min) and the cholesterol content (HDL cholesterol content) of the obtained supernatant (HDL fraction) was measured. The increase ratio of the HDL cholesterol content of each compound administration group when the HDL cholesterol content of the solvent administration group as 100% was calculated from the following formula and expressed in %. HDL cholesterol increase ratio(%)=[(HDL cholesterol content of each compound administration group/HDL cholesterol content of solvent administration group)×100]−100
# CETP [1] = assay: Inhibitory effect exo vivo on CETP activity in total plasma of normal hamster; settings: average values; for CETP activity (%) 4 (hr later): single oral dose 3 mg/kg, blood taken 4 hr after administration
# Experimental: Potassium bromide (KBr) was added to plasma (40 mL) of healthy subject and the mixture was adjusted to have a specific density d=1.125 g/mL. The mixture was subjected to density gradient centrifugation (227,000×g, 4° C., 17 hr) and a fraction showing a specific density of d>1.125 g/mL (HDL3 fraction) was harvested. The obtained fraction was dialyzed against PBS solution [10 mmol/L Na2HPO4; 10 mmol/L NaH2PO4; 0.15 mol/L NaCl; […] (pH 7.4)]. Then, tritium-labeled cholesterol (37 MBq) was dissolved in 95% ethanol, gradually added to the above-mentioned HDL3 fraction with stirring and incubated at 37° C. for 18 hr. [By this operation, tritium-labeled cholesterol was esterified by the action of lecithin acyl transferase (LCAT) present on the HDL3 surface and taken up into HDL3 as tritium-labeled cholesteryl ester ([^3H]CE)]. After incubation, KBr was added, the mixture was adjusted to have a specific density d=1.21 g/mL, subjected to density gradient centrifugation (227,000×g, 4° C., 17 hr) and a fraction of specific density […] was harvested. The obtained fraction was dialyzed against the aforementioned PBS solution to give HDL3 incorporating [^3H]CE ([^3H]CE-HDL3, specific density: 1.125<d<1.21, specific activity: 10,000 dpm/μL), which was used as a donor lipoprotein.
# as §1
# The donor lipoprotein obtained above was added to hamster plasma (100 μL) to prepare [^3H]CE-HDL3-containing plasma (ca. 1,000 dpm/μL). The [^3H]CE-HDL3-containing plasma was dispensed to two microtubes by 25 μL each, and one was incubated at 37° C. and the other was incubated at 4° C. for 4 hr each. After ice-cooling, TBS solution (50 μl) containing 1 mol/L magnesium chloride and 2% dextran sulfate was added to each microtube and the mixture was thoroughly stirred. After keeping at […] for 30 min, the mixture was centrifuged (10,000×g, 4° C., 20 min), and the radioactivity in the obtained supernatant (HDL fraction) was measured with a liquid scintillation counter. The radioactivity of the [^3H]CE-HDL3-containing plasma was measured with a liquid scintillation counter, and taken as the total radioactivity. The transfer rate of [^3H]CE was calculated from the following formula using the total radioactivity (Total count), radioactivity by 37° C. incubation (37° C. count) and radioactivity by 4° C. incubation (4° C. count) of the sample of each individual and taken as the CETP activity. CETP activity(transfer ratio (%))={[(4° C. count)−(37° C. count)]/(Total count)}×100
# The CETP activity inhibitory ratio of each compound administration group based on the CETP activity of the solvent administration group as 100% was calculated from the following formula and expressed in %.
# CETP activity inhibitory ratio (%)=100−[(CETP activity of each compound administration group)/(CETP activity of solvent administration group)×100]
# CETP [2] = target: T1, CETP (Homo sapiens, UniProt P11597); assay: Inhibitory effect in vitro on CETP activity in total plasma; assay type: biochemical; settings: plasma of healthy subject with [3H]CE-HDL3, 37° C., 4 hr; average values
# T1 construct: The donor lipoprotein obtained above was added to plasma of healthy subject; from tissue; host or cells: whole plasma of healthy subject
# T1 sequence (P11597 18-493): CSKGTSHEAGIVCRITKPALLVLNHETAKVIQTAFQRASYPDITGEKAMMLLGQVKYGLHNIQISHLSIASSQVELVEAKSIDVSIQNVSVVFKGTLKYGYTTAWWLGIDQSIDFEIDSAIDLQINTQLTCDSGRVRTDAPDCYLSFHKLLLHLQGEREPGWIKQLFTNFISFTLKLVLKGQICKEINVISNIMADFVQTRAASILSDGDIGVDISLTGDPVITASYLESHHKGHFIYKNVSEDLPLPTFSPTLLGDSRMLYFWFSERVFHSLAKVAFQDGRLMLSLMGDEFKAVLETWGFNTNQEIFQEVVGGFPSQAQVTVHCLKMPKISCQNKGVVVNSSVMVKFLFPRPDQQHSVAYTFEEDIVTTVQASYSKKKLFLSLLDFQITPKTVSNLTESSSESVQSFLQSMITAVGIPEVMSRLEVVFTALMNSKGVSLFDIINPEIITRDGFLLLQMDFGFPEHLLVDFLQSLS
# How it was run: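 Healthy-donor plasma spiked with [3H]cholesteryl ester-labelled HDL3 (1,000 dpm/μL) was incubated with compound (DMF vehicle) for 4 hr at 37 °C or 4 °C. HDL was separated by MgCl2/dextran sulfate precipitation and supernatant radioactivity counted. IC50 is the concentration giving 50% inhibition of CETP activity.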
smiles,measurement,setting,value
"CCN(C[C@H]1CC[C@H](CC(=O)O)CC1)c1ccc(OC(F)(F)F)cc1CN(Cc1cc(C(F)(F)F)cc(C(F)(F)F)c1)c1nnn(C)n1.Cl [Example 115, trans-(4-{[N-(2-{[N′-[3,5-bis(trifluoromethyl)benzyl]-N′-(2-methyl-2H-tetrazol-5-yl)amino]methyl}-4-trifluoromethoxyphenyl)-N-ethylamino]methyl}cyclohexyl)acetic acid hydrochloride]",HDL cholesterol increase content (%) 4 (hr later),HDL cholesterol,23.3%
same,HDL cholesterol increase content (%) 8 (hr later),HDL cholesterol,30.7%
same,CETP activity (%) 4 (hr later),CETP [1],62.1%
same,IC50,CETP [2],90 nM
"CCN(C[C@H]1CC[C@H](CC(=O)O)CC1)c1ccc(C(F)(F)F)cc1CN(Cc1cc(C(F)(F)F)cc(C(F)(F)F)c1)c1nnn(C)n1.Cl [Example 118, trans-(4-{[N-(2-{[N′-[3,5-bis(trifluoromethyl)benzyl]-N′-(2-methyl-2H-tetrazol-5-yl)amino]methyl}-4-trifluoromethylphenyl)-N-ethylamino]methyl}cyclohexyl)acetic acid hydrochloride]",HDL cholesterol increase content (%) 4 (hr later),HDL cholesterol,21.1%
same,HDL cholesterol increase content (%) 8 (hr later),HDL cholesterol,31.7%
same,CETP activity (%) 4 (hr later),CETP [1],55.4%
same,IC50,CETP [2],90 nM
"CCN(C[C@H]1CC[C@H](CC(=O)O)CC1)c1cc(C(F)(F)F)c(C)cc1CN(Cc1cc(C(F)(F)F)cc(C(F)(F)F)c1)c1nnn(C)n1.Cl [Example 143, trans-(4-{[N-(2-{[N′-[3,5-bis(trifluoromethyl)benzyl]-N′-(2-methyl-2H-tetrazol-5-yl)amino]methyl}-4-methyl-5-trifluoromethylphenyl)-N-ethylamino]methyl}cyclohexyl)acetic acid hydrochloride]",HDL cholesterol increase content (%) 4 (hr later),HDL cholesterol,17.0%
same,HDL cholesterol increase content (%) 8 (hr later),HDL cholesterol,21.3%
same,CETP activity (%) 4 (hr later),CETP [1],42.2%
same,IC50,CETP [2],100 nM
"CCN(C[C@H]1CC[C@H](CC(=O)O)CC1)c1cc(C)c(C(F)(F)F)cc1CN(Cc1cc(C(F)(F)F)cc(C(F)(F)F)c1)c1nnn(C)n1.Cl [Example 142, trans-(4-{[N-(2-{[N′-[3,5-bis(trifluoromethyl)benzyl]-N′-(2-methyl-2H-tetrazol-5-yl)amino]methyl}-5-methyl-4-trifluoromethylphenyl)-N-ethylamino]methyl}cyclohexyl)acetic acid hydrochloride]",HDL cholesterol increase content (%) 4 (hr later),HDL cholesterol,20.3%
same,HDL cholesterol increase content (%) 8 (hr later),HDL cholesterol,31.9%
same,CETP activity (%) 4 (hr later),CETP [1],71.6%
same,IC50,CETP [2],60 nM
"CCCN(C[C@H]1CC[C@H](CC(=O)O)CC1)c1ccc(OC(F)(F)F)cc1CN(Cc1cc(C(F)(F)F)cc(C(F)(F)F)c1)c1nnn(C)n1.Cl [Example 158, trans-(4-{[N-(2-{[N′-[3,5-bis(trifluoromethyl)benzyl]-N′-(2-methyl-2H-tetrazol-5-yl)amino]methyl}-4-trifluoromethoxyphenyl)-N-propylamino]methyl}cyclohexyl)acetic acid hydrochloride]",HDL cholesterol increase content (%) 4 (hr later),HDL cholesterol,14.8%
same,HDL cholesterol increase content (%) 8 (hr later),HDL cholesterol,23.7%
same,CETP activity (%) 4 (hr later),CETP [1],55.6%
"CCCN(C[C@H]1CC[C@H](CC(=O)O)CC1)c1ccc(C(F)(F)F)cc1CN(Cc1cc(C(F)(F)F)cc(C(F)(F)F)c1)c1nnn(C)n1.Cl [Example 154, trans-(4-{[N-(2-{[N′-[3,5-bis(trifluoromethyl)benzyl]-N′-(2-methyl-2H-tetrazol-5-yl)amino]methyl}-4-trifluoromethylphenyl)-N-propylamino]methyl}cyclohexyl)acetic acid hydrochloride]",HDL cholesterol increase content (%) 4 (hr later),HDL cholesterol,13.3%
same,HDL cholesterol increase content (%) 8 (hr later),HDL cholesterol,22.4%
same,CETP activity (%) 4 (hr later),CETP [1],64.2%
"CCCN(C[C@H]1CC[C@H](CC(=O)O)CC1)c1cc(C)c(C(F)(F)F)cc1CN(Cc1cc(C(F)(F)F)cc(C(F)(F)F)c1)c1nnn(C)n1.Cl [Example 157, trans-(4-{[N-(2-{[N′-[3,5-bis(trifluoromethyl)benzyl]-N′-(2-methyl-2H-tetrazol-5-yl)amino]methyl}-5-methyl-4-trifluoromethylphenyl)-N-propylamino]methyl}cyclohexyl)acetic acid hydrochloride]",HDL cholesterol increase content (%) 4 (hr later),HDL cholesterol,17.9%
same,HDL cholesterol increase content (%) 8 (hr later),HDL cholesterol,27.1%
same,CETP activity (%) 4 (hr later),CETP [1],80.4%
"CCN(C[C@H]1CC[C@H](C(=O)O)CC1)c1ccc(OC(F)(F)F)cc1CN(Cc1cc(C(F)(F)F)cc(C(F)(F)F)c1)c1noc(C)n1.Cl [Example 109, trans-4-{[N-(2-{[N′-[3,5-bis(trifluoromethyl)benzyl]-N′-(5-methyl-[1,2,4]oxadiazol-3-yl)amino]methyl}-4-trifluoromethoxyphenyl)-N-ethylamino]methyl}cyclohexanecarboxylic acid hydrochloride]",CETP activity (%) 2 (hr later),"CETP [1]; single oral dose 10 mg/kg, blood taken 2 hr after administration",42.8%
same,IC50,CETP [2],160 nM
